Test results taken from the CheMixHub viscosity set.

Assay: xn = mol fraction of the nth substance listed

CCOC(C)=O + CCCCCC
Conditions	viscosity [mPa·s]
293.15 K, 101 kPa, x1 = 0.0998	0.3115
293.15 K, 101 kPa, x1 = 0.2074	0.3152
293.15 K, 101 kPa, x1 = 0.2978	0.3217
293.15 K, 101 kPa, x1 = 0.4046	0.3303
293.15 K, 101 kPa, x1 = 0.5034	0.3416
293.15 K, 101 kPa, x1 = 0.614	0.3599
293.15 K, 101 kPa, x1 = 0.6748	0.3683
293.15 K, 101 kPa, x1 = 0.8018	0.3963
293.15 K, 101 kPa, x1 = 0.9118	0.4248
298.15 K, 101 kPa, x1 = 0.0436	0.29
298.15 K, 101 kPa, x1 = 0.0998	0.2967
298.15 K, 101 kPa, x1 = 0.15	0.293
298.15 K, 101 kPa, x1 = 0.2074	0.3001
298.15 K, 101 kPa, x1 = 0.2504	0.298
298.15 K, 101 kPa, x1 = 0.2978	0.3052
298.15 K, 101 kPa, x1 = 0.3494	0.305
298.15 K, 101 kPa, x1 = 0.4046	0.3142
298.15 K, 101 kPa, x1 = 0.4477	0.314
298.15 K, 101 kPa, x1 = 0.4908	0.319
298.15 K, 101 kPa, x1 = 0.5034	0.3265
298.15 K, 101 kPa, x1 = 0.5489	0.326
298.15 K, 101 kPa, x1 = 0.614	0.3413
298.15 K, 101 kPa, x1 = 0.6485	0.342
298.15 K, 101 kPa, x1 = 0.6748	0.3496
298.15 K, 101 kPa, x1 = 0.7513	0.361
298.15 K, 101 kPa, x1 = 0.8018	0.3755
298.15 K, 101 kPa, x1 = 0.8507	0.384
298.15 K, 101 kPa, x1 = 0.9118	0.402
298.15 K, 101 kPa, x1 = 0.942	0.41
303.15 K, 101 kPa, x1 = 0.0998	0.283
303.15 K, 101 kPa, x1 = 0.2032	0.2874
303.15 K, 101 kPa, x1 = 0.2074	0.2861
303.15 K, 101 kPa, x1 = 0.2978	0.2901
303.15 K, 101 kPa, x1 = 0.4017	0.3009
303.15 K, 101 kPa, x1 = 0.4046	0.2991
303.15 K, 101 kPa, x1 = 0.5013	0.3117
303.15 K, 101 kPa, x1 = 0.5034	0.3092
303.15 K, 101 kPa, x1 = 0.599	0.3249
303.15 K, 101 kPa, x1 = 0.614	0.3231
303.15 K, 101 kPa, x1 = 0.6748	0.3317
303.15 K, 101 kPa, x1 = 0.8018	0.3565
303.15 K, 101 kPa, x1 = 0.8203	0.3611
303.15 K, 101 kPa, x1 = 0.9118	0.3812
303.15 K, 101.3 kPa, x1 = 0.106	0.2774
303.15 K, 101.3 kPa, x1 = 0.1995	0.2799
303.15 K, 101.3 kPa, x1 = 0.3097	0.2869
303.15 K, 101.3 kPa, x1 = 0.4073	0.2945
303.15 K, 101.3 kPa, x1 = 0.5055	0.3045
303.15 K, 101.3 kPa, x1 = 0.6094	0.3179
303.15 K, 101.3 kPa, x1 = 0.7062	0.3331
303.15 K, 101.3 kPa, x1 = 0.8061	0.3523
303.15 K, 101.3 kPa, x1 = 0.9036	0.3748
308.15 K, 101 kPa, x1 = 0.0436	0.272
308.15 K, 101 kPa, x1 = 0.15	0.274
308.15 K, 101 kPa, x1 = 0.2504	0.277
308.15 K, 101 kPa, x1 = 0.3494	0.282
308.15 K, 101 kPa, x1 = 0.4477	0.29
308.15 K, 101 kPa, x1 = 0.4908	0.294
308.15 K, 101 kPa, x1 = 0.5489	0.3
308.15 K, 101 kPa, x1 = 0.6485	0.313
308.15 K, 101 kPa, x1 = 0.7513	0.33
308.15 K, 101 kPa, x1 = 0.8507	0.349
308.15 K, 101 kPa, x1 = 0.942	0.371
313.15 K, 101 kPa, x1 = 0.0998	0.2582
313.15 K, 101 kPa, x1 = 0.2074	0.2604
313.15 K, 101 kPa, x1 = 0.2978	0.2643
313.15 K, 101 kPa, x1 = 0.4046	0.2723
313.15 K, 101 kPa, x1 = 0.5034	0.2806
313.15 K, 101 kPa, x1 = 0.614	0.2933
313.15 K, 101 kPa, x1 = 0.6748	0.3004
313.15 K, 101 kPa, x1 = 0.8018	0.3224
313.15 K, 101 kPa, x1 = 0.9118	0.3443

CCOC(C)=O + CCCCCO
viscosity [mPa·s], 101.33 kPa
Conditions	x1 = 0.1	x1 = 0.2	x1 = 0.3	x1 = 0.4001	x1 = 0.5001	x1 = 0.6036	x1 = 0.7001	x1 = 0.8001	x1 = 0.9
298.15 K	2.349	1.693	1.282	1.011	0.829	–	0.6	0.521	0.472
303.15 K	2.079	1.53	1.161	0.924	0.766	0.644	0.561	0.486	0.446
308.15 K	1.843	1.367	1.053	0.848	0.681	0.599	0.525	0.459	0.392

Clc1cccc(Cl)c1 + CCCCCC
viscosity [mPa·s], 100 kPa
Conditions	298.15 K	308.15 K	318.15 K
x1 = 0.0593	0.327	0.301	0.282
x1 = 0.1575	0.36	0.331	0.309
x1 = 0.255	0.4	0.368	0.338
x1 = 0.3473	0.446	0.407	0.37
x1 = 0.4204	0.487	0.442	0.4
x1 = 0.48	0.524	0.473	0.427
x1 = 0.5322	0.56	0.504	0.454
x1 = 0.5704	0.588	0.528	0.475
x1 = 0.6295	0.634	0.568	0.51
x1 = 0.6705	0.669	0.598	0.537
x1 = 0.7263	0.719	0.642	0.577
x1 = 0.8186	0.81	0.724	0.649
x1 = 0.9465	0.952	0.851	0.76

CC(C)(C)N1CCCC1=O + O
298.16 K, 101 kPa
Conditions	viscosity [mPa·s]
x1 = 0.1105	3.47
x1 = 0.261	4.04
x1 = 0.4035	4.76
x1 = 0.5487	5.49
x1 = 0.6233	5.79
x1 = 0.6749	5.86
x1 = 0.7189	5.81
x1 = 0.7798	5.44
x1 = 0.8652	4.22

COC(=O)CC(C)=O + CCCCCO
viscosity [mPa·s], 101.33 kPa
Conditions	x1 = 0.1031	x1 = 0.2056	x1 = 0.3072	x1 = 0.4083	x1 = 0.5091	x1 = 0.6099	x1 = 0.7075	x1 = 0.8063	x1 = 0.9019
298.15 K	2.467	2.053	1.796	1.637	1.52	1.439	1.408	1.408	1.449
303.15 K	2.156	1.809	1.588	1.453	1.356	1.294	1.268	1.275	1.313
308.15 K	1.903	1.606	1.419	1.3	1.223	1.175	1.156	1.164	1.201

CCOc1ccccc1 + CCCCCCO
viscosity [mPa·s], 101.3 kPa
Conditions	x1 = 0.1009	x1 = 0.1998	x1 = 0.2997	x1 = 0.3996	x1 = 0.5031	x1 = 0.6005	x1 = 0.7003	x1 = 0.8012	x1 = 0.9001
293.15 K	4.148	3.239	2.559	2.075	1.745	1.557	1.458	1.407	1.38
298.15 K	3.444	2.764	2.253	1.872	1.586	1.392	1.293	1.246	1.237
308.15 K	2.831	2.252	1.807	1.482	1.248	1.103	1.033	1.001	0.9927
318.15 K	2.142	1.72	1.388	1.153	0.9975	0.9133	0.8619	0.8367	0.8214
